Data: patent US20030215462A1, “Use of UGT inhibitors to increase bioavailability” (priority 2001, published 2003)

Assays:
[1] = biological target: T1, UGT1A9 (Homo sapiens, UniProt O60656); experiment: Substrate glucuronidation by recombinant UGT1A9
T1 sequence (O60656 26-530): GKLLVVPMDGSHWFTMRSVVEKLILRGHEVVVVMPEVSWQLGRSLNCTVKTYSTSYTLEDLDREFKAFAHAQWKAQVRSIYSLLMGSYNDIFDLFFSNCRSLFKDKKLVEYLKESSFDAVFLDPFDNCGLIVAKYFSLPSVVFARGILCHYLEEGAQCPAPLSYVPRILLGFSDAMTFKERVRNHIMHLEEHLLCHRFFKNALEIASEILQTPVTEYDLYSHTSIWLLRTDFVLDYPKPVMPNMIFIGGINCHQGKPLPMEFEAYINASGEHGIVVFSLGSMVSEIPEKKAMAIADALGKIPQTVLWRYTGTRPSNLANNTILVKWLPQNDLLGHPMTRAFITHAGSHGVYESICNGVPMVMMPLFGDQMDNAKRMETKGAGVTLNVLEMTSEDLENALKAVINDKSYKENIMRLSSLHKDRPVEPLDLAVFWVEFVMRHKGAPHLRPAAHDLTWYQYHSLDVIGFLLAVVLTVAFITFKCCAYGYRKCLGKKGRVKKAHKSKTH

[2] = biological target: T2, UGT1A8 (Homo sapiens, UniProt Q9HAW9)
T2 sequence (Q9HAW9 26-530): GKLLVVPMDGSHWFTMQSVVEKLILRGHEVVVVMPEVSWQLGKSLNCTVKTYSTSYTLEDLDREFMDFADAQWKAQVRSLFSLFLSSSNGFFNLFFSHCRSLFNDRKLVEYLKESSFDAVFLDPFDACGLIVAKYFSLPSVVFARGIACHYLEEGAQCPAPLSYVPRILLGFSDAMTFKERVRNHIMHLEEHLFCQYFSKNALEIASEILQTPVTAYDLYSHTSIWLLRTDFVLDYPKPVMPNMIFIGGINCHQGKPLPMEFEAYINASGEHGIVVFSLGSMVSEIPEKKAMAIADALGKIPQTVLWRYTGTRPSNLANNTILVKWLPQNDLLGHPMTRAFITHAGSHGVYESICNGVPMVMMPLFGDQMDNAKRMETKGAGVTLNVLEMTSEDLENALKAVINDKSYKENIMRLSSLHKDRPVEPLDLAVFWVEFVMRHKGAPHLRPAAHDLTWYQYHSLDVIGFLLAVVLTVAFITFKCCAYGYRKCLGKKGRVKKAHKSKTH

Structure (SMILES) | 7-HFC glucuronidation rate as % of the rate for UGT1A6 ([1]; UGT1A9) | 7-HFC glucuronidation rate ([1]; UGT1A9 Supersomes 250 μg/ml, 7-HFC 50 μM) | labetalol metabolism, in words [2]
O=c1cc(C(F)(F)F)c2ccc(O)cc2o1 [7-HFC, 7-hydroxy-4-(trifluoromethyl)coumarin] | 81% | 3976 ± 41 pmol/min/mg protein | 
CC(CCc1ccccc1)NCC(O)c1ccc(O)c(C(N)=O)c1 (stereo not drawn) [Labetalol, labetalol] |  |  | No detectable metabolism was observed
